Laboratory results from patent US9113629B2, “4-amino-6-(4-substituted-phenyl)-picolinates and 6-amino-2-(4-substituted-phenyl)-pyrimidine-4-carboxylates and their use as herbicides” (DOW AGROSCIENCES LLC, priority 2013, dated 2015).
Like-named read-outs stand apart in the source and are kept apart here. Values belong to the molecule of their own block, whether it stands above or below them.

Legend:
[1] = tested on: Key Grass and Sedge Weeds as well as Grass Crops; assay: Post-emergent Test II herbicidal activity (Table 6); type: in vivo; conditions: post-emergence, 336 h; for pest or weed control at 70 g/ha: application rate 70 g ai/ha; for pest or weed control at 140 g/ha: application rate 140 g ai/ha
How it was run: (§1)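 Foliar application at 187 L/ha to greenhouse-grown seedlings (first or second true leaf); subirrigation thereafter. Visual 0–100% injury at 14 d relative to untreated plants.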

[2] = tested on: Key Broadleaf Weed and Crop Species; assay: Post-emergent Test II herbicidal activity (Table 5); type: in vivo; conditions: post-emergence, 336 h, post-emergent, 14 days after application; for pest or weed control at 70 g/ha: application rate 70 g ai/ha; for pest or weed control at 140 g/ha: application rate 140 g ai/ha
How it was run: as §1

[3] = CYPES: yellow nutsedge (Cyperus esculentus), read-out: Visual Growth Reduction (%) 14 Days After Application, CYPES
[4] = DIGSA: crabgrass (Digitaria sanguinalis), read-out: Visual Growth Reduction (%) 14 Days After Application, DIGSA
[5] = ECHCG: barnyardgrass (Echinochloa crus-galli), read-out: Visual Growth Reduction (%) 14 Days After Application, ECHCG
[6] = ORYSA: rice (Oryza sativa), read-out: Visual Growth Reduction (%) 14 Days After Application, ORYSA
[7] = SETFA: giant foxtail (Setaria faberi), read-out: Visual Growth Reduction (%) 14 Days After Application, SETFA
[8] = SORVU: grain sorghum (Sorghum vulgare), read-out: Visual Growth Reduction (%) 14 Days After Application, SORVU
[9] = TRZSS (wheat, Triticum aestivum), read-out: Visual Growth Reduction (%) 14 Days After Application, TRZSS
[10] = ZEAMX: maize, corn (Zea mays), read-out: Visual Growth Reduction (%) 14 Days After Application, ZEAMX
[11] = ABUTH: velvetleaf (Abutilon theophrasti), read-out: Visual Growth Reduction (%) 14 Days After Application, ABUTH
[12] = AMARE: redroot pigweed (Amaranthus retroflexus), read-out: Visual Growth Reduction (%) 14 Days After Application, AMARE
[13] = BRSNN: oilseed-rape, canola (Brassica napus), read-out: Visual Growth Reduction (%) 14 Days After Application, BRSNN
[14] = CHEAL: lambsquarters (Chenopodium album), read-out: Visual Growth Reduction (%) 14 Days After Application, CHEAL
[15] = EPHHL: wild poinsettia (Euphorbia heterophylla), read-out: Visual Growth Reduction (%) 14 Days After Application, EPHHL
[16] = HELAN: sunflower (Helianthus annuus), read-out: Visual Growth Reduction (%) 14 Days After Application, HELAN
[17] = VIOTR: wild pansy (Viola tricolor), read-out: Visual Growth Reduction (%) 14 Days After Application, VIOTR

- melting point: 167.4 to 170.2 °C
Compound: Nc1cc(-c2cc(F)c(OC(F)F)cc2F)nc(C(=O)O)c1Cl [Compound 187]
- pest or weed control at 70 g/ha [1, 3]: 0 to 29%
- pest or weed control at 140 g/ha [1, 3]: 30 to 44%
- pest or weed control at 70 g/ha [1, 4]: 0 to 29%
- pest or weed control at 140 g/ha [1, 4]: 0 to 29%
- pest or weed control at 70 g/ha [1, 5]: 60 to 74%
- pest or weed control at 140 g/ha [1, 5]: 60 to 74%
- pest or weed control at 70 g/ha [1, 6]: 0 to 29%
- pest or weed control at 140 g/ha [1, 6]: 0 to 29%
- pest or weed control at 70 g/ha [1, 7]: 60 to 74%
- pest or weed control at 140 g/ha [1, 7]: 75 to 84%
- pest or weed control at 70 g/ha [1, 8]: 0 to 29%
- pest or weed control at 140 g/ha [1, 8]: 0 to 29%
- pest or weed control at 70 g/ha [1, 9]: 0 to 29%
- pest or weed control at 140 g/ha [1, 9]: 45 to 59%
- pest or weed control at 70 g/ha [1, 10]: 0 to 29%
- pest or weed control at 140 g/ha [1, 10]: 0 to 29%
- pest or weed control at 70 g/ha [2, 11]: 45 to 59%
- pest or weed control at 140 g/ha [2, 11]: 60 to 74%
- pest or weed control at 70 g/ha [2, 12]: 95 to 100%
- pest or weed control at 140 g/ha [2, 12]: 95 to 100%
- pest or weed control at 70 g/ha [2, 13]: 75 to 84%
- pest or weed control at 140 g/ha [2, 13]: 75 to 84%
- pest or weed control at 70 g/ha [2, 14]: 75 to 84%
- pest or weed control at 140 g/ha [2, 14]: 95 to 100%
- pest or weed control at 70 g/ha [2, 15]: 95 to 100%
- pest or weed control at 140 g/ha [2, 15]: 95 to 100%
- pest or weed control at 70 g/ha [2, 16]: 45 to 59%
- pest or weed control at 140 g/ha [2, 16]: 60 to 74%
- pest or weed control at 70 g/ha [2, 17]: 0 to 29%
- pest or weed control at 140 g/ha [2, 17]: 0 to 29%

- melting point: 162 to 165 °C
Compound: Nc1c(F)c(-c2cc(F)c(OC(F)F)cc2F)nc(C(=O)O)c1Cl [Compound 195]
- pest or weed control at 70 g/ha [1, 3]: 0 to 29%
- pest or weed control at 140 g/ha [1, 3]: 0 to 29%
- pest or weed control at 70 g/ha [1, 4]: 0 to 29%
- pest or weed control at 140 g/ha [1, 4]: 0 to 29%
- pest or weed control at 70 g/ha [1, 5]: 0 to 29%
- pest or weed control at 140 g/ha [1, 5]: 0 to 29%
- pest or weed control at 70 g/ha [1, 6]: 0 to 29%
- pest or weed control at 140 g/ha [1, 6]: 0 to 29%
- pest or weed control at 70 g/ha [1, 7]: 0 to 29%
- pest or weed control at 140 g/ha [1, 7]: 0 to 29%
- pest or weed control at 70 g/ha [1, 8]: 0 to 29%
- pest or weed control at 140 g/ha [1, 8]: 0 to 29%
- pest or weed control at 70 g/ha [1, 9]: 0 to 29%
- pest or weed control at 140 g/ha [1, 9]: 0 to 29%
- pest or weed control at 70 g/ha [1, 10]: 0 to 29%
- pest or weed control at 140 g/ha [1, 10]: 0 to 29%
- pest or weed control at 70 g/ha [2, 11]: 0 to 29%
- pest or weed control at 140 g/ha [2, 11]: 0 to 29%
- pest or weed control at 70 g/ha [2, 12]: 0 to 29%
- pest or weed control at 140 g/ha [2, 12]: 45 to 59%
- pest or weed control at 70 g/ha [2, 13]: 45 to 59%
- pest or weed control at 140 g/ha [2, 13]: 60 to 74%
- pest or weed control at 70 g/ha [2, 14]: 45 to 59%
- pest or weed control at 140 g/ha [2, 14]: 75 to 84%
- pest or weed control at 70 g/ha [2, 15]: 30 to 44%
- pest or weed control at 140 g/ha [2, 15]: 30 to 44%
- pest or weed control at 70 g/ha [2, 16]: 60 to 74%
- pest or weed control at 140 g/ha [2, 16]: 85 to 94%
- pest or weed control at 70 g/ha [2, 17]: 0 to 29%
- pest or weed control at 140 g/ha [2, 17]: 0 to 29%
